{"source": "ChEMBL document CHEMBL1201862", "about": "“PubChem BioAssay data set” (2004)", "key": {"[1]": {"experiment": "luciferase reporter signal suppression in cells – H4 neuroglioma cells, luminescence, dose response (AID 1990)", "type": "functional, cell-based"}, "[2]": {"experiment": "Luminescence Cell-Based Dose Response HTS to Identify Inhibitors of 5'UTR Stem-Loop Driven Prion Protein mRNA Translation in H4 Neuroglioblastoma Cells. [Related pubchem assays: 1827 (Project Summary), 1813 (Primary HTS)]", "type": "functional"}, "[3]": {"experiment": "alpha-synuclein stem-loop luciferase translation blockers – H4 neuroglioma cells, luminescence, confirmation (AID 1988)", "type": "functional, cell-based"}, "[4]": {"system": "Streptococcus sp. 'group A'", "experiment": "Streptococcus pyogenes SK(-)GAS viability under kanamycin – luminescence, BacTiterGlo, confirmation, counter-screen for streptokinase expression inhibitor project, dose response (AID 1900)", "type": "functional, organism-based"}, "Streptococcus": {"system": "Streptococcus", "experiment": "GAS UMAA2166 growth inhibition – luminescence, BacTiterGlo, counter-screen for streptokinase expression inhibitor project, dose response (AID 1915);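 note: potency for reduction of bacterial viability or growth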", "type": "functional, organism-based"}, "INS1": {"system": "INS1", "experiment": "INS-1E survival protection against cytokine death – cell-based, luminescence, retest, dose response (AID 449756);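 note: cell death triggered by IL-1 beta plus TNF-alpha plus IFN-gamma mixture; protective hits raise ATP signal compared with cytokine alone wells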", "type": "functional", "settings": "Rattus norvegicus"}, "[5]": {"biological_target": "Luciferin 4-monooxygenase (Photinus pyralis, UniProt P08659)", "sequence (P08659 whole entry)": "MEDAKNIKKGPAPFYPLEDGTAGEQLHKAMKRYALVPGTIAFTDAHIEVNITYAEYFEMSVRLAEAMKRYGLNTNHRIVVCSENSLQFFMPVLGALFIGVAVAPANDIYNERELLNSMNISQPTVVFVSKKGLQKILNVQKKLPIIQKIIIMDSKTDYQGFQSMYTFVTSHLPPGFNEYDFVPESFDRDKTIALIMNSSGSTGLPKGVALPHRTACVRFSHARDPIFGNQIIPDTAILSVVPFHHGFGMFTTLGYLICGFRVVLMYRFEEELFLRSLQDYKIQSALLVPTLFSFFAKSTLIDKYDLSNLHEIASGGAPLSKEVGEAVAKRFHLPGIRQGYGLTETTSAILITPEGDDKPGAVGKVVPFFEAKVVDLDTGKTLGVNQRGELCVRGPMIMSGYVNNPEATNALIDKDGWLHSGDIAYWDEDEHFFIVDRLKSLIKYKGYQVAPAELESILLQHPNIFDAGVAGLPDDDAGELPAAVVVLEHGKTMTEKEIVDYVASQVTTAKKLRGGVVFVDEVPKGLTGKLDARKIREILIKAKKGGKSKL", "experiment": "inhibition of purified Photinus pyralis luciferase – biochemical, luminescence, dose response (AID 1891)"}, "[6]": {"experiment": "Luminescence Cell-Based Dose Confirmation HTS to Identify Inhibitors of Platelet Dense Granule Release. [Related pubchem assays: 1663 (Primary HTS), 1678 (Summary of Project)]", "type": "functional"}, "[7]": {"biological_target": "T1, Polyadenylate-binding protein 1 (Homo sapiens, UniProt P11940)", "T1 sequence (P11940 whole entry)": "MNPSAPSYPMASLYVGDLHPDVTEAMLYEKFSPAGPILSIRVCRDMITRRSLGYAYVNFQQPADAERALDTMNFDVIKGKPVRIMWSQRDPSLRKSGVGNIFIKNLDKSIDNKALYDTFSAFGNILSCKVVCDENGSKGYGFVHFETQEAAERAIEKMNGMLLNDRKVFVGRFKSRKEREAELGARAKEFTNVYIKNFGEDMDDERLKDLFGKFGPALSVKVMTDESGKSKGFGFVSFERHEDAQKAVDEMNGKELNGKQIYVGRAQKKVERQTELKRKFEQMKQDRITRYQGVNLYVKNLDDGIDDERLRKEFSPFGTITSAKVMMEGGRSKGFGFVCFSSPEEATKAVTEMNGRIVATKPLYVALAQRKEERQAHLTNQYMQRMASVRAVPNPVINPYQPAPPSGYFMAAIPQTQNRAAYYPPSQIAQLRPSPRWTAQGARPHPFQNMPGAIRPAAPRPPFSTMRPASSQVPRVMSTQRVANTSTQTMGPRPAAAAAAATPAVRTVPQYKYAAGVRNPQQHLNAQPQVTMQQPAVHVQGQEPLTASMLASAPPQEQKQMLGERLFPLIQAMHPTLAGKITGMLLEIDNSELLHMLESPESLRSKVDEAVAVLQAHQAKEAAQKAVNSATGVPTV", "experiment": "MLLE binding blockers, Cy5 peptide tracer – biochemical, fluorescence polarization, Cy5-PAM2 peptide, secondary, miRNA deadenylation inhibitor project, dose response (AID 602260)", "type": "functional", "settings": "read-out: IC50_Mean"}, "[8]": {"biological_target": "T1, Polyadenylate-binding protein 1", "experiment": "MLLE domain peptide-binding blockers, IC50 – biochemical, fluorescence polarization, FITC-PAM2 peptide, dose response (AID 602259)", "type": "functional", "settings": "read-out: IC50_Mean"}, "[9]": {"experiment": "viability of PTEN-deleted HCT116 cells – cell-based, HCT116 PTEN knockout, dose response (AID 1047);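 note: cells exposed to compound for 60 hours before readout; potency for loss of cell viability measured by luminescence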", "type": "functional"}, "[10]": {"experiment": "viability of HCT116 lacking mutant beta-catenin – cell-based, human colon tumor, dose response (AID 1045);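 note: cells exposed to compound for 60 hours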", "type": "functional"}, "[11]": {"experiment": "Luminescence Cell-Based Dose Retest to Confirm Inhibitors of Cancer Stem Cells. [Related pubchem assays (depositor defined):AID2717, AID2721]", "type": "functional", "settings": "Homo sapiens"}, "[12]": {"experiment": "viability of uninfected HEp-2 cells – cell-based, HTS, cytotoxicity control for RSV inhibitor project, dose response (AID 2410)", "type": "functional", "settings": "human respiratory syncytial virus"}, "[13]": {"biological_target": "T2, Heat shock factor protein 1 (Mus musculus, UniProt P38532)", "T2 sequence (P38532 whole entry)": "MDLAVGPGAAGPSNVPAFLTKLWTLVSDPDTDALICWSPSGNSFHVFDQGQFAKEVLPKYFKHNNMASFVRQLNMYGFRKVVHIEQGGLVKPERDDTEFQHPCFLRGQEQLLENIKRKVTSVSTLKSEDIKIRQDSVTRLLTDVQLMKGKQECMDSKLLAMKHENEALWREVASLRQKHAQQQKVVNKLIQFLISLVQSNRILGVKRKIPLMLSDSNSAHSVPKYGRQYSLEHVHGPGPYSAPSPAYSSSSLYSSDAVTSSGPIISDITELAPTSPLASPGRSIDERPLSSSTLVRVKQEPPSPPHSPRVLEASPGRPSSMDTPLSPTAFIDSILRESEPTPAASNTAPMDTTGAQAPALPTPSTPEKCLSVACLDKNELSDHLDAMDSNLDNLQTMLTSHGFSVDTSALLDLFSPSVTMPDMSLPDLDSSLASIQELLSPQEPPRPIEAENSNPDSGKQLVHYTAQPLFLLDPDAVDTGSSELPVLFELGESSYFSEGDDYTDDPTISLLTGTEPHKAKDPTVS", "experiment": "enhancement of HSF1-driven luciferase signal – cell-based, NIH3T3, luminescence, dose retest, confirmation (AID 435004);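 note: stress induced by proteasome inhibitor MG132 added 30 min after compound; actives raise luminescence as potentiators of the MG132 stress response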", "type": "functional"}, "[14]": {"biological_target": "T3, RNA-binding protein pos-1 (Caenorhabditis elegans, UniProt G5EF15)", "T3 sequence (G5EF15 whole entry)": "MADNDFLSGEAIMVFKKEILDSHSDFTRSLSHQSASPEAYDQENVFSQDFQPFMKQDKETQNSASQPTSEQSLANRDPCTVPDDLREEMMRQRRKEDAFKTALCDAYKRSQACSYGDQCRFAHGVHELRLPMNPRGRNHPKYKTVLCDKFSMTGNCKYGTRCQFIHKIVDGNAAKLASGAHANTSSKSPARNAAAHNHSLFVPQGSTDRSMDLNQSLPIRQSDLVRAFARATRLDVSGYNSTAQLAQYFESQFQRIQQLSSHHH", "experiment": "disruptors of C. elegans POS-1 RNA interaction – biochemical, fluorescence polarization, dose response (AID 1964);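 note: purified POS-1 fused to maltose binding protein made in E. coli; potency of compounds blocking POS-1 binding to fluorescent RNA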"}, "[15]": {"biological_target": "T4, Corticotropin-releasing factor receptor 2/Corticotropin-releasing factor-binding protein (Homo sapiens, UniProt P24387+Q13324)", "T4 sequence (Q13324 whole entry)": "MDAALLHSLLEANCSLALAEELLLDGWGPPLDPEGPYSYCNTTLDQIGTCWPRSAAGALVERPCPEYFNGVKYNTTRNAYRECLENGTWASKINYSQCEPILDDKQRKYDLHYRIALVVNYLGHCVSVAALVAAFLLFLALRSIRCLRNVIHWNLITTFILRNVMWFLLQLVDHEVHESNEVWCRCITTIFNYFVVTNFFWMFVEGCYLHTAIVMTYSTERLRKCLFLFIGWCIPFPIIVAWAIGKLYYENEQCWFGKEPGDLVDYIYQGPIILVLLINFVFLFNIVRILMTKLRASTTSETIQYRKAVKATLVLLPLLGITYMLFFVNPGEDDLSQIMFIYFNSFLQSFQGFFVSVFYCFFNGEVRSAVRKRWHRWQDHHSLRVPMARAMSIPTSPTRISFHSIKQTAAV", "T4 sequence (P24387 whole entry)": "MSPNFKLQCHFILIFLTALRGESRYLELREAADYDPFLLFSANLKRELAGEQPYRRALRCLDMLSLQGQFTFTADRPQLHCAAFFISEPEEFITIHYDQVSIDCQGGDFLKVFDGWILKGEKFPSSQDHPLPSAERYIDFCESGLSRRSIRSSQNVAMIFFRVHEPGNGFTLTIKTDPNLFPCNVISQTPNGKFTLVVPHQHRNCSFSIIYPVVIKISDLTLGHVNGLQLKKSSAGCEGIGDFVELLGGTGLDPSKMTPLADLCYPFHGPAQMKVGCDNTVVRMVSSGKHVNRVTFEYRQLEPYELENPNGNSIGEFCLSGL", "experiment": "activators of CRF receptor 2 with binding protein – uHTS hits, confirmation (AID 602473)", "type": "functional", "settings": "read-out: EC50_Mean"}}, "note": "Counter-ions that a name gives are not always drawn. Activity calls are given as the source filed them. Cut-off read from the data, not from the text of the source, for most assays here: actives have a measured EC50 and inactives only a lower limit."}
{"smiles": "CCOC(=O)C1=C(C)N(C)C(C)=C(C(=O)OCC)C1c1ccc(C(=O)OC)cc1", "values": [{"measurement": "EC50", "setting": "[1]", "result": "35.5 µM (active)"}, {"measurement": "EC50", "setting": "[2]", "result": "> 120 µM (not active)"}, {"measurement": "EC50", "setting": "[3]", "result": "37.9 µM (active)"}]}
{"smiles": "Cc1c(N=N/C(C#N)=C(\\O)c2ccc(Cl)cc2)c(=O)n(-c2ccccc2)n1C", "values": [{"measurement": "EC50", "setting": "[1]", "result": "9.5 µM (active)"}, {"measurement": "EC50", "setting": "[4]", "result": "0.528 µM (active)"}, {"measurement": "EC50", "setting": "[2]", "result": "9.48 µM (active)"}, {"measurement": "EC50", "setting": "[3]", "result": "8.7 µM (active)"}, {"measurement": "EC50", "setting": "Streptococcus", "result": "9.3 µM (active)"}, {"measurement": "AC50", "setting": "INS1", "result": "2.08 µM (active)"}]}
{"smiles": "C=CCN(C(=O)CCC(=O)O)C1CC(=O)N(c2ccc(OC)cc2)C1=O", "note": "(centres undefined)", "values": [{"measurement": "EC50", "setting": "[5]", "result": "> 112 µM (not active)"}, {"measurement": "EC50", "setting": "[6]", "result": "> 112 µM (not active)"}]}
{"smiles": "Cc1c(NC(=S)NC(=O)CSc2ccc(Cl)cc2)cccc1C(=O)O", "values": [{"measurement": "IC50", "setting": "[7]", "result": "> 66 µM (inactive)"}, {"measurement": "IC50", "setting": "[8]", "result": "> 66 µM (inactive)"}]}
{"smiles": "C=CCSC1=C(C#N)C(c2ccccc2OCC)C(C#N)C(=O)N1", "note": "(centres undefined)", "values": [{"measurement": "IC50", "setting": "[7]", "result": "> 66 µM (inactive)"}, {"measurement": "IC50", "setting": "[8]", "result": "> 66 µM (inactive)"}]}
{"smiles": "CN(C)CCCN1c2ccccc2CCc2ccc(Cl)cc21", "note": "[CLOMIPRAMINE HYDROCHLORIDE]", "values": [{"measurement": "EC50", "setting": "[9]", "result": "9.89 µM (active)"}, {"measurement": "EC50", "setting": "[10]", "result": "10.3 µM (active)"}]}
{"smiles": "COc1cc(SC#N)ccc1/N=C/c1c(C)[nH]n(-c2ccc(C)c(C)c2)c1=O", "values": [{"measurement": "EC50", "setting": "[9]", "result": "8.81 µM (active)"}, {"measurement": "EC50", "setting": "[10]", "result": "8.18 µM (active)"}, {"measurement": "AC50", "setting": "[11]", "result": "1.41 µM (active)"}, {"measurement": "AC50", "setting": "INS1", "result": "4.24 µM (active)"}]}
{"smiles": "O=S(=O)(NCCc1cn2ccccc2n1)c1ccc2c(c1)CCCC2", "values": [{"measurement": "EC50", "setting": "[5]", "result": "> 112 µM (not active)"}, {"measurement": "EC50", "setting": "[6]", "result": "> 112 µM (not active)"}]}
{"smiles": "COc1ccc(C(=O)NC2(C(F)(F)F)N=C3SCCN3C2=O)cc1", "note": "(centres undefined)", "values": [{"measurement": "IC50", "setting": "[7]", "result": "> 66 µM (inactive)"}, {"measurement": "IC50", "setting": "[8]", "result": "> 66 µM (inactive)"}]}
{"smiles": "CCOc1ccccc1C(=O)Nc1cnc(O)nc1O", "values": [{"measurement": "CC50", "setting": "[12]", "result": "> 50 µM (active)"}, {"measurement": "EC50", "setting": "[2]", "result": "> 120 µM (not active)"}, {"measurement": "EC50", "setting": "[3]", "result": "> 120 µM (not active)"}, {"measurement": "EC50", "setting": "[5]", "result": "> 112 µM (not active)"}, {"measurement": "EC50", "setting": "[6]", "result": "0.125 µM (active)"}]}
{"smiles": "COc1ccc(C2NC(=O)CCC2[N+](=O)[O-])c(OC)c1", "note": "(centres undefined)", "values": [{"measurement": "EC50", "setting": "[13]", "result": "> 260 µM (inactive)"}]}
{"smiles": "COc1cc(S(=O)(=O)Nc2ccc(C)cc2)ccc1N/C=C1\\C(=O)N(C)C(=O)C(C#N)=C1C", "values": [{"measurement": "EC50", "setting": "[14]", "result": "2.83 µM (active)"}, {"measurement": "EC50", "setting": "[15]", "result": "> 53 µM (inactive)"}]}
{"smiles": "O=C(O)CC(SCC(=O)Nc1ccc(S(=O)(=O)N2CCCC2)cc1)C(=O)O", "note": "(centres undefined)", "values": [{"measurement": "IC50", "setting": "[7]", "result": "> 66 µM (inactive)"}, {"measurement": "IC50", "setting": "[8]", "result": "> 66 µM (inactive)"}]}
{"smiles": "Cc1ccccc1C(=O)NCCNc1ccc([N+](=O)[O-])cc1", "values": [{"measurement": "EC50", "setting": "[1]", "result": "> 120 µM (not active)"}, {"measurement": "EC50", "setting": "[2]", "result": "> 120 µM (not active)"}, {"measurement": "EC50", "setting": "[3]", "result": "> 120 µM (not active)"}]}
{"smiles": "Cc1cccc(OCC(O)CN2CCN(S(=O)(=O)c3ccc(C)cc3C)CC2)c1", "note": "(centres undefined)", "values": [{"measurement": "EC50", "setting": "[1]", "result": "> 120 µM (not active)"}, {"measurement": "EC50", "setting": "[2]", "result": "> 120 µM (not active)"}, {"measurement": "EC50", "setting": "[3]", "result": "15.9 µM (active)"}]}
{"smiles": "CCc1cc(C(c2ccccc2OC)N2CCOCC2)c(NC(=O)c2ccccc2)s1", "note": "(centres undefined)", "values": [{"measurement": "EC50", "setting": "[13]", "result": "7.34 µM (active)"}]}
{"smiles": "COc1cccc(-n2c(N)c(C(=O)Nc3c(C)n(C)n(-c4ccccc4)c3=O)c3nc4ccccc4nc32)c1", "values": [{"measurement": "EC50", "setting": "[5]", "result": "> 112 µM (not active)"}, {"measurement": "EC50", "setting": "[6]", "result": "> 112 µM (not active)"}]}
{"smiles": "NC(=O)COc1ccccc1", "values": [{"measurement": "EC50", "setting": "[13]", "result": "> 260 µM (inactive)"}]}
{"smiles": "Oc1nc(SCCOc2cccc3ccccc23)nc2ccccc12", "values": [{"measurement": "EC50", "setting": "[1]", "result": "15.4 µM (active)"}, {"measurement": "EC50", "setting": "[2]", "result": "> 120 µM (not active)"}, {"measurement": "EC50", "setting": "[3]", "result": "> 120 µM (not active)"}]}
{"smiles": "Cc1cc(/C=C2\\C(=O)NC(=O)N(c3ccc(Br)cc3)C2=O)c(C)n1C", "values": [{"measurement": "EC50", "setting": "[14]", "result": "59.7 µM (active)"}]}
